Assay results published in US9610294B2, “Methods and compositions for the treatment of fluid accumulation in and/or under the retina” (UNIVERSITE PARIS DESCARTES, priority 2010, dated 2017).
Entries after “also recorded” stand apart in the source; their conditions may differ.

What was measured:
ENaC-α [1] = assay: ENaC-α expression (real-time PCR, western blot) in rat RMG primary cultures and retinal explants; assay type: cell-based
Description: Rat RMG cells were obtained as described (deKozak, Y., Naud, M. C., Bellot, J., Faure, J. P., and Hicks, D. (1994) Differential tumor necrosis factor expression by resident retinal cells from experimental uveitis-susceptible and -resistant rat strains. J Neuroimmunol 55, 1-9). Briefly, rats at postnatal (PN) day 17 (when RMG cells are mature) were sacrificed and eyes enucleated. Intact eyeballs were maintained in DMEM overnight at room temperature in the dark, and then incubated 45 min with 2 mg/ml trypsin/collagenase I at 37° C. The neural retinas were separated from the lens and vitreous, cut into small fragments and plated in Petri dishes containing DMEM supplemented with 10% FCS, 100 units/ml penicillin, 100 µg/ml streptomycin, and 0.2% amphotericin B. Cultures were maintained at 37° C. in a humidified atmosphere containing 5% CO2. After 5 to 6 days, the cultures were washed extensively with medium so that only a strongly adherent flat cell population remained.
Müller cells were seeded in 6-well tissue culture plates (Becton Dickinson, Le Pont de Claix, France). Rat PN17 RMG cells were maintained in their initial Petri dishes. Sub confluent (80%) cells were incubated in media supplemented with 10% steroid-free (charcoal treated) FCS for 24 hrs. Corticosteroid (Sigma-Aldrich, Saint Quentin Fallavier, France) treatments were then applied respectively for a further 24 hrs: 10 nM aldosterone, 10 nM aldosterone plus 1).IM RU38486 (GR-specific antagonist), 10 nM aldosterone plus 1 µM RU26752 (MR-specific antagonist) or 1 µM dexamethasone. The steroids were previously dissolved in 2% steroid-free FCS media containing 0.1% ethanol. Control cells were treated with 0.1% ethanol in media.
After enucleation, rat retinas were isolated immediately under aseptic conditions and cut into 4 pieces. They were then transferred onto a Cyclopore 0.2).Im polycarbonate membrane (Whatman, Maidstone, England), and flatmounted with the vitreal side up. The support membranes were placed in 6-well tissue culture plates containing 2 ml DMEM supplemented with 10% steroid-free FCS, 1% penicillin-streptomycin and 0.1% amphotericin B. Explants were treated with corticosteroids as described for cultured cells. Similarly, the dose-dependent effect of aldosterone (0.1-100 nM) was analyzed on retinal explants in separate experiments.
Total RNA was isolated from the treated RMG cells and retinal explants using RNeasy Mini Kit (Qiagen, Courtaboeuf, France). First-strand cDNA was synthesized after DNase I (Qiagen) treatment using random primers (Invitrogen) and superscript II reverse transcriptase (Invitrogen). Transcript levels of ENaC-a, Kir4.1 and AQP4 were analyzed by real-time PCR performed in 7500 Real-Time PCR System (Applied Biosystems, Foster City, Calif., USA) with either TaqMan® (Applied Biosystems) or SYBR® Green (Invitrogen, Cergy Pontoise, France) detection. The 18S was used as internal control.
Retinal explants were homogenized in Np40 buffer in the presence of protease inhibitors. The protein concentration was determined by the Bradford method. Equal amounts of protein (12 .ug) were separated on Novex® 4%-12% Tris-Glycine gel (Invitrogen), transferred to nitrocellulose, and the blots were incubated with primary antibodies at 4° C. overnight. The membranes were washed, incubated with horse radish peroxidase conjugated goat anti-rabbit IgG (1:3000, Vector, AbCys, Paris, France) for 1 hr at room temperature, and developed using ECL Plus western blotting detection reagents (GE healthcare, Orsay, France). The j3-actin was used as internal control. The following primary antibodies were used: rabbit anti-alpha ENaC (1:500, Abcam, Cambridge, Mass., USA), rabbit anti-Kir4.1 (1:400, Alomone Labs, Jerusalem, Israel), rabbit anti-AQP4 (1:750, Millipore, St Quentin en Yvelines, France) and rabbit anti-j3-actin (1:1000, Abcam)

ENaC-α [2] = assay: ENaC-α immunolocalization in retina of aldosterone-injected eyes; assay type: in vivo, Lewis rats; settings: aldosterone-injected vs saline-injected eyes
Description: (§1) Anesthesia of rats was induced by intramuscular injection of ketamine (100 mg/kg, Virbac, Carros, France) and chlorpromazine (0.65 mg/kg, LARGACTIL®, Sanofi Aventis, Livron sur Drome, France). Intravitreous injections were performed using microfine (300 μl) syringes with 30 G needles under topical anesthesia (tetracaine 1%, Aldrich, Lyon, France). Rat eyes were injected with 5 μl aldosterone diluted in 0.9% saline to obtain a concentration of 200 nM for injection, corresponding to a final concentration of 20 nM in the vitreous. Control rat eyes were injected with 5 μl saline. Twenty-four hrs after injection, rats were sacrificed. Eyes were then removed for retinal flat mounting, immunohistochemistry and morphological analysis respectively.
(§2) Eyes were snap frozen in Tissue-Tek OCT-compound (Bayer Diagnostics, Puteaux, France). Ten μm cryostat sections of rat eyes were fixed in 4% PFA for 15 min and permeabilized with 0.1% Triton X-I00 for 30 min. Unspecific binding sites were blocked with 5% normal goat serum for 1 hr. The sections were then incubated with primary antibodies for 1 hr at room temperature, washed in PBS, and further incubated with secondary antibodies for 1 hr. […] Images were taken using a fluorescence microscope (Olympus BX51, Rungis, France) equipped with a CCD camera (Olympus DP70). […]

Kir4.1 = Kir4.1 immunofluorescence in retina of aldosterone-injected eyes; assay type: in vivo, Lewis rats; settings: intravitreous aldosterone vs sham-injected
Description: as §1, §2

C[C@]12CCC(=O)C=C1CC[C@@H]1[C@@H]2[C@@H](O)C[C@]2(C=O)[C@@H](C(=O)CO)CC[C@@H]12 [aldosterone]
ENaC-α subunit mRNA expression (ENaC-α [1]; 24 hrs treatment, rat RMG primary cultures and retinal explants): significant up-regulation
dose dependence of ENaC-α transcripts (ENaC-α [1]; aldosterone 0.1-100 nM, retinal explants): dose dependent manner
expression of sodium channel ENaC-a (ENaC-α [1]; aldosterone 24 hrs): 6.5 fold
ENaC-α expression at the protein level (ENaC-α [1]; western blot, retinal explants): up-regulated
ENaC-α expression intensity and number of expressing cells in retina (ENaC-α [2]): increased in the INL
Kir4.1 localization in retina (Kir4.1): additional localization; also recorded: enhanced Kir4.1 immunofluorescence in the RMG apical microvilli in the OLM; also recorded: additional mislocalization
